Measured values reported in patent US20240246940A1, “HETEROARYL DERIVATIVE COMPOUND AND USE THEREOF” (VORONOI INC., priority 2021, published 2024).

Legend:
[1] = system: BT-474 cells (HER2 overexpressing cell line); experiment: BT-474 cell proliferation inhibitory activity (CellTiter-Glo, 120 hours); format: cell-based; conditions: Homo sapiens
Outline: (§1)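 Plate cells (HaCaT 3000/well, others 5000/well), then allow 24 h or 48 h before dosing, with the longer wait for SK-BR-3 and BT-474. Add compounds as 3-fold series, or 5-fold for N-87, at 11 concentrations each. Read viability luminescence, compute growth % against control and derive GI50.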

[2] = system: N-87 cells (HER2 overexpressing cell line); experiment: N-87 cell proliferation inhibitory activity (CellTiter-Glo, 72 hours); format: cell-based
Outline: as §1

HER2 = target: T1, HER2 (Homo sapiens, UniProt P04626); experiment: Biochemical kinase assay for HER2 (Reaction Biology Corp), ATP 10 μM, 10-dose IC50
T1 construct: purchased Reaction Biology Corp
T1 sequence (P04626 23-1255): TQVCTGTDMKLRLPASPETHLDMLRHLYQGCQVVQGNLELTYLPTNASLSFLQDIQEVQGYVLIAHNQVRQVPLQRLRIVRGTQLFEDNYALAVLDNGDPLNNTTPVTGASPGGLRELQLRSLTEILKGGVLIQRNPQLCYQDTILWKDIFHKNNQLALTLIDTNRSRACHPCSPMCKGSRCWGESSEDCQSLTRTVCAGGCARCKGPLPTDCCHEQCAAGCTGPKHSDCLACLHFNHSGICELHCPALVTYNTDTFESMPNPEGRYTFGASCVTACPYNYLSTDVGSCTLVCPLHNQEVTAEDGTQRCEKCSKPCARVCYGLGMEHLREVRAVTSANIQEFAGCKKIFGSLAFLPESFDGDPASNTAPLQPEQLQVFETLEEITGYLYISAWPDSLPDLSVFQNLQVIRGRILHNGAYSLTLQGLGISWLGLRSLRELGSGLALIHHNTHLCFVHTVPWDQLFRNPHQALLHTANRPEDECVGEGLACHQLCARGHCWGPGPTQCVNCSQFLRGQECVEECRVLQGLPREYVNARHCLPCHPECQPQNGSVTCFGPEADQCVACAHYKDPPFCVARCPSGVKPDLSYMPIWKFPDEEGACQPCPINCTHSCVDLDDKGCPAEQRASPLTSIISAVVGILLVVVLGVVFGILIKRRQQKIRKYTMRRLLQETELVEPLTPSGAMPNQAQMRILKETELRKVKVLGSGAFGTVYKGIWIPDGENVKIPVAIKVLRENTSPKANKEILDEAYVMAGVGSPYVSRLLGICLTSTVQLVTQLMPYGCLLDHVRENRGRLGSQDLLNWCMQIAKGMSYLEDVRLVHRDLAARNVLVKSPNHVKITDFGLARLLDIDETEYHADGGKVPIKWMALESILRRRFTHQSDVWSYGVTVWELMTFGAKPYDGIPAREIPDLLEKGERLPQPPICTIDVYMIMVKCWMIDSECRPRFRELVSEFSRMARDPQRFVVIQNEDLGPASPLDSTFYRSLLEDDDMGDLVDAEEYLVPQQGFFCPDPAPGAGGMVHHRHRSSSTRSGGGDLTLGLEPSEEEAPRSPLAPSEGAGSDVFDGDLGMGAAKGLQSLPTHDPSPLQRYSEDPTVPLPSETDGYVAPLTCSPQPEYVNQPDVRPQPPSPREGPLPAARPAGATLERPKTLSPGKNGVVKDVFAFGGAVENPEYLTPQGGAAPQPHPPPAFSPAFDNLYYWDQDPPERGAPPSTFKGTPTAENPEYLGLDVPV
Experimental: (§2) Biochemical kinase assays for HER2 and EGFR were performed by Reaction Biology Corp (San Diego, USA).

EGFR = target: T2, EGFR (Homo sapiens, UniProt P00533); experiment: Biochemical kinase assay for EGFR (Reaction Biology Corp), ATP 10 μM, 10-dose IC50
T2 construct: purchased Reaction Biology Corp
T2 sequence (P00533 25-1210): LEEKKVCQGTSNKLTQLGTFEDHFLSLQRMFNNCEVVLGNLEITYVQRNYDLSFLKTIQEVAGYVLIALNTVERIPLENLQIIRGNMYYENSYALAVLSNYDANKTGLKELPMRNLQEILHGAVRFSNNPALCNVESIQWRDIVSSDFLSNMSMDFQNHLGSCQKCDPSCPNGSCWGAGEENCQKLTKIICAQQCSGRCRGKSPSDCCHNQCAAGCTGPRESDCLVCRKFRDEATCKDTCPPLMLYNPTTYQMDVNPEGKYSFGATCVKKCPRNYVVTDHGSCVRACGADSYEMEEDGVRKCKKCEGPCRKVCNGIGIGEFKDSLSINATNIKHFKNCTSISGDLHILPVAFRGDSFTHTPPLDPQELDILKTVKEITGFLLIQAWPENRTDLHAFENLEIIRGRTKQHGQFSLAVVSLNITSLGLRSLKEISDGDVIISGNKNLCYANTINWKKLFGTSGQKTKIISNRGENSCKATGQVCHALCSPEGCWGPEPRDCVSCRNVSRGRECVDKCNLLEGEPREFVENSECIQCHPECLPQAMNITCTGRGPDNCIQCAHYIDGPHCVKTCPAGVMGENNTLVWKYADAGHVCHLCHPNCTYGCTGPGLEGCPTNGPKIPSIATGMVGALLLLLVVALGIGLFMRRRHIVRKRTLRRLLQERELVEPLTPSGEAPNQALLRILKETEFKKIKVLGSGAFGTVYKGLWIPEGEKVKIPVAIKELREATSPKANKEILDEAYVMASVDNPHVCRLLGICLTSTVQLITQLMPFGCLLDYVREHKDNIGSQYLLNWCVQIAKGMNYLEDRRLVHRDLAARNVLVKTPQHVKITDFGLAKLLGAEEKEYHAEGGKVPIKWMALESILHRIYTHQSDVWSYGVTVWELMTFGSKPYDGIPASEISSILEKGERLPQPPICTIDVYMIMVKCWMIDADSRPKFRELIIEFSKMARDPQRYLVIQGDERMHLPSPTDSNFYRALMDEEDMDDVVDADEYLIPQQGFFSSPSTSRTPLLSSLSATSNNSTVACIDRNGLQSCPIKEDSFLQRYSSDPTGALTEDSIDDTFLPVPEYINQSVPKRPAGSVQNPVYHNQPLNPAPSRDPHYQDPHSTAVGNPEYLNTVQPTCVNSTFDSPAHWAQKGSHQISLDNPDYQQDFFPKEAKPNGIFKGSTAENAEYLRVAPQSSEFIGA
Experimental: as §2

[3] = system: HaCaT cells (EGFR expressing cell line); experiment: HaCaT cell proliferation inhibitory activity (CellTiter-Glo, 72 hours); format: cell-based; conditions: Homo sapiens
Outline: as §1

[4] = system: Ba/F3 cells expressing EGFR Del19/T790M; experiment: Transduced Ba/F3 cell proliferation inhibitory activity, EGFR Del19/T790M; format: cell-based; conditions: Mus musculus, BaF3, 72 hours
Experimental: (§3) For Ba/F3 cells, RPMI-1640 supplemented with 10% FBS and 5 ng/ml IL-3 (R&D Systems) was used. Transduced Ba/F3 cells were cultured by adding 1 μg/ml puromycin (Invitrogen) to the same medium.
(§4) 3000 to 5000 cells were aliquoted into each well of a white clear bottom 96 well plate (Corning) 24 hours before treatment with the compounds of Examples. The compounds of Examples were diluted in dimethyl sulfoxide (three-fold dilution, a total of 12 concentrations) and injected each in an amount of 1 μl to a final concentration of 0.2 nM to 5 μM. For the measurement of living cells, the cells were stored at room temperature for 10 minutes using CellTiter-Glo luminescent cell-viability reagent (Promega) in 72 hours after treatment with the compounds of Examples, and the luminescence intensity thereof was measured using a reader (SynergyNeo, Biotek). Each test was repeated three times. The result values were calculated as a cell growth rate (%) compared to those of the control group. A graph was created using the GraphPad Prism version 8.3.0 program, and GI50 values were calculated.

[5] = system: Ba/F3 cells expressing EGFR WT; experiment: Transduced Ba/F3 cell proliferation inhibitory activity, EGFR WT; format: cell-based; conditions: Mus musculus, BaF3, 72 hours
Experimental: as §3, §4

[6] = system: Ba/F3 cells expressing HER2 L869R; experiment: Transduced Ba/F3 cell proliferation inhibitory activity, HER2 L869R; format: cell-based; conditions: Mus musculus, BaF3, 72 hours
Experimental: as §3, §4

[7] = system: Ba/F3 cells expressing EGFR L861Q; experiment: Transduced Ba/F3 cell proliferation inhibitory activity, EGFR L861Q; format: cell-based; conditions: Mus musculus, BaF3, 72 hours
Experimental: as §3, §4

[8] = system: Ba/F3 cells expressing EGFR S768I; experiment: Transduced Ba/F3 cell proliferation inhibitory activity, EGFR S768I; format: cell-based; conditions: Mus musculus, BaF3, 72 hours
Experimental: as §3, §4

[9] = system: Ba/F3 cells expressing EGFR G719A; experiment: Transduced Ba/F3 cell proliferation inhibitory activity, EGFR G719A; format: cell-based; conditions: Mus musculus, BaF3, 72 hours
Experimental: as §3, §4

[10] = system: Ba/F3 cells expressing EGFR G719A/S768I; experiment: Transduced Ba/F3 cell proliferation inhibitory activity, EGFR G719A/S768I; format: cell-based; conditions: Mus musculus, BaF3, 72 hours
Experimental: as §3, §4

[11] = system: Ba/F3 cells expressing HER2 WT; experiment: Transduced Ba/F3 cell proliferation inhibitory activity, HER2 WT; format: cell-based; conditions: Mus musculus, BaF3, 72 hours
Experimental: as §3, §4

[12] = system: Ba/F3 cells expressing HER2 T798I; experiment: Transduced Ba/F3 cell proliferation inhibitory activity, HER2 T798I; format: cell-based; conditions: Mus musculus, BaF3, 72 hours
Experimental: as §3, §4

[13] = system: Ba/F3 cells expressing HER2 L756S; experiment: Transduced Ba/F3 cell proliferation inhibitory activity, HER2 L756S; format: cell-based; conditions: Mus musculus, BaF3; Ba/F3 HER2 L755S, 72 hours
Experimental: as §3, §4

[14] = system: SK-BR-3 cells (HER2 overexpressing cell line); experiment: SK-BR-3 cell proliferation inhibitory activity (CellTiter-Glo, 120 hours); format: cell-based; conditions: Homo sapiens
Outline: as §1

[15] = system: Ba/F3 cells expressing HER2 T862A; experiment: Transduced Ba/F3 cell proliferation inhibitory activity, HER2 T862A; format: cell-based; conditions: Mus musculus, BaF3, 72 hours
Experimental: as §3, §4

Structure (SMILES) | GI50 [1] | IC50 (HER2) | IC50 (EGFR) | GI50 [4] | GI50 [5] | GI50 [6] | GI50 [7] | GI50 [8] | GI50 [9] | GI50 [10] | GI50 [11] | GI50 [12] | GI50 [13] | GI50 [14] | GI50 [15] | GI50 [2] | GI50 [3]
COc1cc2ncnc(Nc3cc(-c4ccc(F)cc4F)ccc3OC)c2cc1NC(=O)/C(F)=C\[C@H]1CCCN1C [Example 304, (R,E)-N-(4-((2′,4′-difluoro-4-methoxy-[1,1′-biphenyl]-3-yl)amino)-7-methoxyquinazolin-6-yl)-2-fluoro-3-(1-methylpyrrolidin-2-yl)acrylamide] | ≤ 150 nM | ≤ 50 nM | ≤ 50 nM |  |  |  |  |  |  |  |  |  |  |  |  | ≤ 150 nM | ≤ 150 nM
C=CC(=O)N1CCC(Oc2cc3c(Nc4cc(-c5ccc(F)cc5F)ccc4OC)ncnc3cc2OC)C(F)C1 (stereo not shown) [Example 143, 1-(4-((4-((2′,4′-difluoro-4-methoxy-[1,1′-biphenyl]-3-yl)amino)-7-methoxy-quinazolin-6-yl)oxy)-3-fluoropiperidin-1-yl)prop-2-en-1-one] | ≤ 150 nM |  |  |  |  | ≤ 50 nM |  |  |  |  |  |  | ≤ 50 nM | ≤ 150 nM | ≤ 50 nM | ≤ 150 nM | ≤ 150 nM
C=CC(=O)N1CCC(Oc2cc3c(Nc4cc(-c5ccco5)ccc4OC)ncnc3cc2OC)CC1 [Example 80, 1-(4-((4-((5-(furan-2-yl)-2-methoxyphenyl)amino)-7-methoxy-quinazolin-6-yl)oxy)piperidin-1-yl)prop-2-en-1-one] | ≤ 150 nM | ≤ 50 nM |  | ≤ 50 nM | ≤ 50 nM | ≤ 50 nM | ≤ 50 nM | ≤ 50 nM | ≤ 50 nM | ≤ 50 nM | ≤ 50 nM | ≤ 50 nM | ≤ 50 nM | ≤ 150 nM | ≤ 50 nM |  | ≤ 150 nM
C=CC(=O)N1CCC(Oc2cc3c(Nc4cc(-c5ccco5)ccc4OC)ncnc3cc2OC)C(F)C1 (stereo not shown) [Example 112, 1-(3-fluoro-4-((4-((5-(furan-2-yl)-2-methoxyphenyl)amino)-7-methoxy-quinazolin-6-yl)oxy)piperidin-1-yl)prop-2-en-1-one] | ≤ 150 nM |  |  |  |  | ≤ 50 nM |  |  |  |  |  |  | ≤ 50 nM | ≤ 150 nM | ≤ 50 nM | ≤ 150 nM | ≤ 150 nM
C=CC(=O)N1CCC(Nc2cc3c(Nc4cc(-c5ccco5)ccc4OC)ncnc3cc2OCC)CC1 [Example 300, 1-(4-((7-ethoxy-4-((5-(furan-2-yl)-2-methoxyphenyl)amino)quinazolin-6-yl)amino)piperidin-1-yl)prop-2-en-1-one] | ≤ 150 nM |  |  |  |  |  |  |  |  |  | ≤ 50 nM | 100 to 500 nM | ≤ 50 nM |  | ≤ 50 nM | ≤ 150 nM | ≤ 150 nM
COc1cc2ncnc(Nc3cc(-c4ccco4)ccc3OC)c2cc1NC(=O)/C(F)=C\[C@H]1CCCN1C [Example 307, (R,E)-2-fluoro-N-(4-((5-(furan-2-yl)-2-methoxyphenyl)amino)-7-methoxyquinazolin-6-yl)-3-(1-methylpyrrolidin-2-yl)acrylamide] | ≤ 150 nM |  |  |  | ≤ 50 nM |  |  | ≤ 50 nM |  |  |  |  |  | ≤ 150 nM |  | ≤ 150 nM | ≤ 150 nM

Second part, led by results:

GI50 [1] | IC50 (HER2) | IC50 (EGFR) | GI50 [4] | GI50 [5] | GI50 [6] | GI50 [7] | GI50 [8] | GI50 [9] | GI50 [10] | GI50 [11] | GI50 [12] | GI50 [13] | GI50 [14] | GI50 [15] | Structure (SMILES) | GI50 [2] | GI50 [3]
≤ 150 nM | ≤ 50 nM | ≤ 50 nM | ≤ 50 nM | 50 to 100 nM | ≤ 50 nM | ≤ 50 nM | 50 to 100 nM | ≤ 50 nM | ≤ 50 nM | ≤ 50 nM | 100 to 500 nM | ≤ 50 nM | ≤ 150 nM | ≤ 50 nM | C=CC(=O)N1CCC(Oc2cc3c(Nc4cc(-c5ccc(F)cc5F)ccc4OC)ncnc3cc2OC)CC1 [Example 68, 1-(4-((4-((2′,4′-difluoro-4-methoxy-[1,1′-biphenyl]-3-yl)amino)-7-methoxy-quinazolin-6-yl)oxy)piperidin-1-yl)prop-2-en-1-one] | ≤ 150 nM | ≤ 150 nM
≤ 150 nM | ≤ 50 nM | ≤ 50 nM |  |  |  |  |  |  |  | ≤ 50 nM | ≤ 50 nM | ≤ 50 nM | ≤ 150 nM | ≤ 50 nM | COc1cc2ncnc(Nc3cc(-c4ccc(F)cc4F)ccc3OC)c2cc1NC(=O)/C=C/[C@H]1CCCN1C [Example 305, (R,E)-N-(4-((2′,4′-difluoro-4-methoxy-[1,1′-biphenyl]-3-yl)amino)-7-methoxyquinazolin-6-yl)-3-(1-methylpyrrolidin-2-yl)acrylamide] | ≤ 150 nM | ≤ 150 nM
 |  |  |  |  | ≤ 50 nM |  |  |  |  |  | ≤ 50 nM |  | ≤ 150 nM |  | C=CC(=O)N1CCC(Oc2cc3c(Nc4cc(-c5cccs5)ccc4OC)ncnc3cc2OC)CC1 [Example 78, 1-(4-((7-methoxy-4-((2-methoxy-5-(thiophen-2-yl)phenyl)amino)quinazolin-6-yl)oxy)piperidin-1-yl)prop-2-en-1-one] |  | 
≤ 150 nM | ≤ 50 nM | ≤ 50 nM |  | ≤ 50 nM |  |  | ≤ 50 nM |  |  |  |  |  | ≤ 150 nM |  | COc1cc2ncnc(Nc3cc(-c4ccco4)ccc3OC)c2cc1NC(=O)/C=C/[C@H]1CCCN1C [Example 306, (R,E)-N-(4-((5-(furan-2-yl)-2-methoxyphenyl)amino)-7-methoxyquinazolin-6-yl)-3-(1-methylpyrrolidin-2-yl)acrylamide] | ≤ 150 nM | ≤ 150 nM
